Assay results: patent US7750148B2, “Intermediate compound for the production of β-lactamase-resistant cephalosporin ester compounds and salts thereof” (Zhejiang Yongning Pharmaceutical Factory, priority 2003, dated 2010)
Converted amounts (≈) assume the structure as drawn. Like-named read-outs stand apart in the source and are kept apart here.

Assays:
[1] = test system: Bacillus proteus 49085; test: In vitro antibacterial activity (MIC, agar double dilution); type: cell-based
Excerpt: (§1) tested samples YR-1, YR-2 were the ones prepared in example 1 and example 5 respectively, control samples were cefetamet sodium (CTM), cefuroxime sodium (CRX), cefetamet sodium+sulbactam sodium (CTM+SBT) (molar ratio 1:1), cefuroxime+sulbactam sodium (CRX+SBT) (molar ratio 1:1). All control samples (have been sold on the market) were supplied by Zhejiang Yongning pharmaceutical factory.
(§2) Staphylococcus aureus 26003, Diplococcus lanceolatus 31002, E. coli 44102, Shigella sonnet 51081, Shigella bogdii 51313, Shigella flexneri 51573, Proteus mirabilis 49005, Bacillus proteus 49085, Proteus morganii 49086, Pseudomonas aeruginosa 10124, Bacillus pneumoniae 46101, Salmonella enteritidis 50041, Salmonella typhi 50097, Citrobacter 48017, Candida ciferii 41002 were supplied by Shanghai Hygienic and Antiepidemic Station.
(§3) Mueller-Hinton Agar (M.H) culture medium, batch number 20040528 (Shanghai Reagent Supply Research Center, China Diarrhea Disease Control).
(§4) Adopted agar double dilution, inoculated using multipoint inoculator, inoculated 10^5CFU/ML each point, cultured for 24 hours at 37° C., observed and recorded the results, set the least concentration of the antibacterial drug that can inhibit bacteria growth as the minimum inhibitory concentration (MIC).

[2] = test system: Candida ciferii 41002; test: as above; type: cell-based
Excerpt: as §1, §2, §3, §4

[3] = test system: Citrobacter 48017; test: as above; type: cell-based
Excerpt: as §1, §2, §3, §4

[4] = test system: E. coli 44102; test: as above; type: cell-based
Excerpt: as §1, §2, §3, §4

[5] = test system: Proteus mirabilis 49005; test: as above; type: cell-based
Excerpt: as §1, §2, §3, §4

[6] = test system: Salmonella typhi 50097; test: as above; type: cell-based; settings: 10^5CFU/ML each point, 24 hours at 37° C.
Excerpt: as §1, §2, §3, §4

[7] = test system: Shigella bogdii 51313; test: as above; type: cell-based
Excerpt: as §1, §2, §3, §4

[8] = test system: Staphylococcus aureus 26003; test: as above; type: cell-based
Excerpt: as §1, §2, §3, §4

[9] = test system: Proteus morganii 49086; test: as above; type: cell-based; set-up: MIC (as restated in the conclusions): unit not given here; settings: for antibacterial activities enhanced versus CTM or CRX used solely: YR-1 vs CTM, YR-2 vs CRX
Excerpt: as §1, §2, §3, §4

[10] = test system: Bacillus aerogenes 45102; test: as above; type: cell-based
Excerpt: as §1
(§5) Staphylococcus epidermidis 26069 and Bacillus aerogenes 45102 were supplied by Beijing Drug & Biology Product Appraisal Bureau.
as §3, §4

[11] = test system: Staphylococcus epidermidis 26069; test: as above; type: cell-based; settings: Staphylococcus epidermidis 26069, 10^5CFU/ML each point, 24 hours at 37° C.
Excerpt: as §1, §5, §3, §4

[12] = test system: Diplococcus lanceolatus 0031; test: as above; type: cell-based; settings: Diplococcus lanceolatus 0031, 10^5CFU/ML each point, 24 hours at 37° C.
Excerpt: as §1
Diplococcus lanceolatus 0031 was supplied by Shanghai First People's Hospital.
as §3, §4

[13] = Mouse maximum tolerable dose experiment (acute toxicity); type: in vivo, Kunming mice; settings: for abnormalities in the organs after killed (autopsy) / symptoms of toxic reactions: 5 g/kg intragastric; for abnormalities in the organs after killed (autopsy): after 7 days observation; for symptoms of toxic reactions: fasted for 16 hours; for symptoms of toxic reactions / Death rate: 7 days observation; for Death rate / Death number during observation: 5 g/kg/24 hr intragastric
Method: tested samples (YR-1, YR-2) are the same as above.
Strain: Kunming mice; source: Animal Facility of Shanghai Institute of Pharmaceutical Industry; certificate number: Hudonghezhengzi No. 107; animal numbers: 20; Sex: same number of male and female mice; Body weight: 18-21 g; fast time: 16 hours.
Preparation of samples: 5 g/kg (prepared with 5% carboxymethyl cellulose CMC); volume accepted: 0.6 ml/20 g body weight/each time; administration times: once; dosage: 5 g/kg/24 hr
Intragastric Administration
20 mice, 10 male and 10 female, were given YR-1 or YR-2 via intragastric administration, observed manifestation of mice toxic symptom immediately after administration, recorded mice death number.
Observed manifestation of mice toxic symptom immediately after administration, observed twice each day (morning and evening).
Toxic reaction: recorded behaviors of mice, skin, respiration, urination and defecation, appetite, checked if there are abnormal secretions appeared in the nose, eye and mouth.
Observation period: 7 days, killed all the surviving mice after observation period, and autopsied to see if there is any abnormality existed in the mice organs.

[14] = test system: Bacillus proteus 49085, Proteus morganii 49086; test: Ex vivo antibacterial activity experiment after mouse is administered, conclusions (strains not separated); type: in vivo
Excerpt: the sources of tested samples (YR-1, YR-2) and control samples (CTM, CRX, CTM+SBT 1:1 and CRX+SBT 1:1) are the same as above. Bacillus proteus 49085, Proteus morganii 49086, inoculated 10^5CFU/ML each dish. Mueller-Hinton Agar (M.H) culture medium, batch number 000707 (Shanghai Reagent Supply Research Center, China Diarrhea Disease Control). Strain: Kunming mice; source: Animal Facility of Shanghai Institute of Pharmaceutical Industry; certificate number: Hudonghezhengzi No. 107; animal numbers: 120; Sex: same number of male and female mice; Body weight: 18-21 g; fast time: 16 hours. Group 1: CTM, CRX, CTM+SBT 1:1, CRX+SBT 1:1 were given at a dosage of 500 mg/kg intravenously, collecting blood at 10 minutes, 30 minutes, 1 hour, 2 hours, 4 hours, 8 hours after administration. Group 2: […] Kunming mice were randomly divided into several groups according to body weight of empty stomach and sex. Collecting blood of three mice at different time point, anticoagulated with heparin, centrifugated and separated plasma, quantitative spotting, semi-quantitated antibacterial activity according to the size of bacterial inhibition ring.

[15] = mice, intragastric administration 1000 mg/kg
[16] = read-out: MIC of the drug to bacteria

5-thia-1-aza-bicyclo [4,2,0] octane-2-ene-2-carboxylic acid, 7-[[(2-amino-4-thiazolyl) (methoxy imine) acetyl]amino]-3-methyl-8-oxo-, [[3,3-dimethyl-4,4-dioxy-7-oxo-4-thia-1-aza-bicyclo [3,2,0] heptane-2-group]carbonyloxy]oxy]methyl ester [YR-1]
MIC of the drug to bacteria ([1]; Bacillus proteus 49085, 10^5CFU/ML each point, 24 hours at 37° C.): 0.195 µg/mL
MIC of the drug to bacteria ([2]; Candida ciferii 41002, 10^5CFU/ML each point, 24 hours at 37° C.): 0.78 µg/mL
MIC of the drug to bacteria ([3]; Citrobacter 48017, 10^5CFU/ML each point, 24 hours at 37° C.): 1.56 µg/mL
MIC of the drug to bacteria ([4]; E. coli 44102, 10^5CFU/ML each point, 24 hours at 37° C.): 1.56 µg/mL
MIC of the drug to bacteria ([5]; Proteus mirabilis 49005, 10^5CFU/ML each point, 24 hours at 37° C.): 0.098 µg/mL
MIC of the drug to bacteria [6]: 1.56 µg/mL
MIC of the drug to bacteria ([7]; Shigella bogdii 51313, 10^5CFU/ML each point, 24 hours at 37° C.): 0.39 µg/mL
MIC of the drug to bacteria ([8]; Staphylococcus aureus 26003, 10^5CFU/ML each point, 24 hours at 37° C.): 100 µg/mL
MIC (as restated in the conclusions) ([9]; Proteus morganii 49086): 0.78
MIC of the drug to bacteria ([9]; Proteus morganii 49086, 10^5CFU/ML each point, 24 hours at 37° C.): 0.78 µg/mL
antibacterial activities enhanced versus CTM or CRX used solely ([9]; Proteus morganii 49086): one hundred times
MIC of the drug to bacteria ([10]; Bacillus aerogenes 45102, 10^5CFU/ML each point, 24 hours at 37° C.): 0.39 µg/mL
MIC of the drug to bacteria [11]: 50 µg/mL
MIC of the drug to bacteria [12]: 50 µg/mL
abnormalities in the organs after killed (autopsy) ([13]; Kunming mice): no abnormalities were observed in the organs
symptoms of toxic reactions ([13]; Kunming mice): no obvious abnormal symptoms of toxic reactions
Death rate ([13]; female mice): 0%
Death number during observation ([13]; female mice, day 1): 0
Death number during observation ([13]; female mice, day 2): 0
Death number during observation ([13]; female mice, day 3): 0
Death number during observation ([13]; female mice, day 4): 0
Death number during observation ([13]; female mice, day 5): 0
Death number during observation ([13]; female mice, day 6): 0
Death number during observation ([13]; female mice, day 7): 0
Death rate ([13]; male mice): 0%
Death number during observation ([13]; male mice, day 1): 0
Death number during observation ([13]; male mice, day 2): 0
Death number during observation ([13]; male mice, day 3): 0
Death number during observation ([13]; male mice, day 4): 0
Death number during observation ([13]; male mice, day 5): 0
Death number during observation ([13]; male mice, day 6): 0
Death number during observation ([13]; male mice, day 7): 0
blood drug concentrations ([14]; in vivo, 1000 mg/kg): stable and persistent
antibacterial activities in blood 8 hours after administration [14, 15]: can be detected
half-life period (compared with the intravenous controls) ([14]; mouse, in vivo, 1000 mg/kg): longer half-life period

CON=C(C(=O)NC1C(=O)N2C(C(=O)OCOC(=O)C3N4C(=O)CC4S(=O)(=O)C3(C)C)=C(COC(N)=O)CSC12)c1ccco1 (centres unmarked) [YR-2, 5-thia-1-aza-bicyclo [4,2,0] octane-2-ene-2-carboxylic acid, 7-[[(2-furane (methoxy imine)acetyl)amino]-3-[[(aminocarbonyloxy)oxy]methyl]-8-oxo-, [[3,3-dimethyl-4,4-dioxy-7-oxo-4-thia-1-aza-bicyclo[3,2,0]heptane-2-group]carbonyloxy]oxy]methyl ester]
MIC ([1]; Bacillus, 49085, 24 h, read-out: MIC of the drug to bacteria): 0.78 µg/mL
MIC ([2]; Candida, 41002, 24 h, read-out: MIC of the drug to bacteria): 50 µg/mL
MIC ([3]; Citrobacter, 48017, 24 h, read-out: MIC of the drug to bacteria): 3.13 µg/mL
MIC ([4]; Escherichia coli, 44102, 24 h, read-out: MIC of the drug to bacteria): 12.5 µg/mL
MIC ([5]; Proteus mirabilis, 49005, 24 h, read-out: MIC of the drug to bacteria): 3.13 µg/mL
MIC ([6]; Salmonella enterica, read-out: MIC of the drug to bacteria): 6.25 µg/mL
MIC ([7]; Shigella, 51313, 24 h, read-out: MIC of the drug to bacteria): 1.56 µg/mL
MIC ([8]; Staphylococcus aureus, 26003, 24 h, read-out: MIC of the drug to bacteria): 6.25 µg/mL
MIC ([9]; Morganella morganii, 49086, 24 h, read-out: MIC of the drug to bacteria): 25 µg/mL
MIC ([9]; Morganella morganii, 49086, read-out: MIC (as restated in the conclusions)): 25000 µg/mL (≈ 37.3 mM)
antibacterial activities enhanced versus CTM or CRX used solely ([9]; Proteus morganii 49086): four times
MIC ([10]; Bacillus, 45102, 24 h, read-out: MIC of the drug to bacteria): 6.25 µg/mL
MIC [11, 16]: 0.78 µg/mL
MIC [12, 16]: 0.78 µg/mL
abnormalities in the organs after killed (autopsy) ([13]; Kunming mice): no abnormalities were observed in the organs
symptoms of toxic reactions ([13]; Kunming mice): no obvious abnormal symptoms of toxic reactions
LD50 at 7 days ([13]; both sexes, mouse, in vivo, po, 5 g/kg, Kunming mice, intragastric administration, once): > 5000 mg/kg
Death rate ([13]; female mice): 0%
Death number during observation ([13]; female mice, day 1): 0
Death number during observation ([13]; female mice, day 2): 0
Death number during observation ([13]; female mice, day 3): 0
Death number during observation ([13]; female mice, day 4): 0
Death number during observation ([13]; female mice, day 5): 0
Death number during observation ([13]; female mice, day 6): 0
Death number during observation ([13]; female mice, day 7): 0
Death rate ([13]; male mice): 0%
Death number during observation ([13]; male mice, day 1): 0
Death number during observation ([13]; male mice, day 2): 0
Death number during observation ([13]; male mice, day 3): 0
Death number during observation ([13]; male mice, day 4): 0
Death number during observation ([13]; male mice, day 5): 0
Death number during observation ([13]; male mice, day 6): 0
Death number during observation ([13]; male mice, day 7): 0
blood drug concentrations ([14]; in vivo, 1000 mg/kg): stable and persistent
antibacterial activities in blood 8 hours after administration [14, 15]: can be detected
half-life period (compared with the intravenous controls) [14, 15]: longer half-life period
